{
  "source": "patent US20110152267A1",
  "about": "“Compositions and Methods for Treating Hyperproliferative Disorders” (Texas Tech University System, priority 2009, published 2011)",
  "format_in_all_cases": "cell-based, human",
  "key": {"[1]": {"tested_on": "NCI-H-1792 lung adenocarcinoma cell line", "assay": "DIMSCAN cytotoxicity, fenretinide + L-threo-sphinganines 3:1 (Example B12)", "conditions": "96 h", "experimental": "(§1) Cytotoxicity Assay—Once again, cytotoxicity is determined using the DIMSCAN assay system (R. Proffitt et al., Cytometry 24, 204-213 (1996); T. Frgala et al., Mol Cancer Ther. 6:886-97, 2007). The system employs digital imaging microscopy to quantify viable cells, which selectively accumulate fluorescein diacetate to become brightly fluorescent. The system is capable of measuring cytotoxicity over a 4-5 log dynamic range by quenching the residual fluorescence of dead and dying cells with eosin Y and quantifying the total fluorescence of viable cells using digital thresholding. Measured fluorescence is directly proportionate to the number of viable cells. A comparison of the total fluorescence of a drug-treated cell population to the fluorescence of a similar number of untreated cells yields a survival fraction. In brief, 2000 to 10,000 cells/well (depending on size and growth rates) are replicate plated into 60 wells of a 96-well tissue culture plate in 0.1 mL of whole medium and allowed to attach overnight. Drug(s) are then added in 0.05 mL of whole medium to the final concentrations indicated. Drugs (fenretinide, and various chain length L-threo-sphinganines) were tested both as single agents and in a 3:1 ratio of fenretinide:sphinganine. C18-L-threo-sphinganine, or “safingol,” was also tested and results shown for reference. There are 12 wells treated per drug concentration. Twelve wells receive drug vehicle-only to the appropriate final concentration and serve as controls for the plate. Cells are incubated for 96 hours at 37° C. in ambient air with 5% CO2. Fluorescein diacetate is then added to each well in 0.05 mL media to a final concentration of 8 microgram/mL. Cells are incubated for a further 15 minutes at 37° C. and 0.03 mL of 0.5% eosin Y is added to each well. Total fluorescence of viable cells is then measured by digital imaging microscopy. Results were graphed as the ratio of the fluoresecence of drug-treated wells to non-drug treated control wells (i.e., Survival Fraction). All tests were performed at least twice. Representative results are shown.\n(§2) The Combination Index (CI) is a term to describe mathematical modeling of the pharmacologic effects on cytotoxicity (cell death) of two drugs in combination based. Cytotoxic “synergy” is defined as a cell death affect which is greater than would be expected from a simple product of the single agent cytotoxicities alone (i.e. an “additive” effect). By Chou-Talalay analysis, a CI<0.9 on a Fraction Affected (“Fa”, i.e. fraction of cells killed) indicates synergy, with smaller numbers indicating greater synergy; a CI of 0.9-1.1 signifies an additive or near-additive effect; and a CI>1.1 means the drug combination is antagonistic.\nFenretinide and L-threo-sphinganines tested in human lung adenocarcinoma (lung cancer) cell line, NCI-H-1792."}, "[2]": {"tested_on": "LNCaP prostate adenocarcinoma cell line", "assay": "DIMSCAN cytotoxicity, fenretinide + L-threo-sphinganines 3:1 (Example B16)", "conditions": "LNCaP.FGC", "experimental": "as §1, §2\nFenretinide and L-threo-sphinganines tested in human prostate adenocarcinoma (prostate cancer) cell line, LNCaP."}, "[3]": {"tested_on": "CHLA-90 pediatric neuroblastoma cell line", "assay": "DIMSCAN cytotoxicity, fenretinide + L-threo-sphinganines 3:1 (Example B21)", "experimental": "as §1, §2\nFenretinide and L-threo-sphinganines tested in human pediatric neuroblastoma (a nerve-related, solid tumor cancer) cell line, CHLA-90."}, "[4]": {"tested_on": "drug-resistant CHLA-90 neuroblastoma cancer cell line", "assay": "DIMSCAN cytotoxicity dose-response with fenretinide (Examples A, FIGS. 1, 7, 12)", "conditions": "at one or more doses, +96 hrs", "experimental": "(§3) Cytotoxicity Assay: Cytotoxicity in cell lines was determined using a fluorescence-based assay employing digital imaging microscopy (DIMSCAN)(after Fragala, et al, Mol Cancer Ther, 6:886-897, 2007). DIMSCAN quantitates viable cells which selectively accumulate fluorescein diacetate and is capable of measuring cytotoxicity over a 4-5 log dynamic range by quantifying total fluorescence per well (which is proportional to viable, clonogenic cells) after eliminating background fluorescence using digital thresholding and eosin Y quenching. Briefly, cell lines were seeded into 96-well plates in 100 µL of complete culture medium (10-20% serum) per well. Cells were incubated overnight in 2%, 5% or 20% oxygen (room air) prior to addition of drugs in […] volumes of complete medium to various final drug concentrations in replicates of 12 wells per concentration. In assays employing D-threo-PPMP, PPMP was employed at a fixed, minimally-toxic, final concentration of 10 μM in each well. Control wells received ethanol (final concentration=0.12%-0.20%) in complete medium equivalent to the maximum final ethanol concentration of drug-treated wells. Plates were incubated at various oxygen concentrations to simulate physiological hypoxia (i.e., 2% oxygen=typical solid tumor oxygen levels; 5%=bone marrow oxygen levels for leukemias; 20% room air=supraphysiological oxygen for comparison with typical laboratory culture conditions). Plates were assayed at 3-4 days after initiating drug exposure depending on the growth properties of each cell line, to allow for maximum cell death and outgrowth of surviving cells. To measure cytotoxicity, FDA (stock solution of 1 mg/ml in DMSO) was added, in 50 µL of complete medium per well, to a final concentration of 10 µg/ml. The plates were incubated for an additional 15-30 minutes at 37 C and then 30 µL of eosin Y (0.5% in normal saline) was added per well. Total fluorescence of each well was then measured using digital imaging microscopy. […]"}, "[5]": {"tested_on": "GBM2 glioblastoma brain cancer cell line", "assay": "DIMSCAN cytotoxicity dose-response with fenretinide, with or without D-threo-PPMP (Examples A, FIGS. 3, 9, 14, 18-20)", "conditions": "+96 hrs", "experimental": "(§4) Cytotoxicity Assay: Cytotoxicity in cell lines was determined using a fluorescence-based assay employing digital imaging microscopy (DIMSCAN)(after Fragala, et al, Mol Cancer Ther, 6:886-897, 2007). DIMSCAN quantitates viable cells which selectively accumulate fluorescein diacetate and is capable of measuring cytotoxicity over a 4-5 log dynamic range by quantifying total fluorescence per well (which is proportional to viable, clonogenic cells) after eliminating background fluorescence using digital thresholding and eosin Y quenching. Briefly, cell lines were seeded into 96-well plates in 100 µL of complete culture medium (10-20% serum) per well. Cells were incubated overnight in 2%, 5% or 20% oxygen (room air) prior to addition of drugs in […] volumes of complete medium to various final drug concentrations in replicates of 12 wells per concentration. In assays employing D-threo-PPMP, PPMP was employed at a fixed, minimally-toxic, final concentration of 10 μM in each well. Control wells received ethanol (final concentration=0.12%-0.20%) in complete medium equivalent to the maximum final ethanol concentration of drug-treated wells. Plates were incubated at various oxygen concentrations to simulate physiological hypoxia (i.e., 2% oxygen=typical solid tumor oxygen levels; 5%=bone marrow oxygen levels for leukemias; 20% room air=supraphysiological oxygen for comparison with typical laboratory culture conditions). Plates were assayed at 3-4 days after initiating drug exposure depending on the growth properties of each cell line, to allow for maximum cell death and outgrowth of surviving cells. To measure cytotoxicity, FDA (stock solution of 1 mg/ml in DMSO) was added, in 50 µL of complete medium per well, to a final concentration of 10 µg/ml. The plates were incubated for an additional 15-30 minutes at 37 C and then 30 µL of eosin Y (0.5% in normal saline) was added per well. Total fluorescence of each well was then measured using digital imaging microscopy.\n(§5) FIGS. 1 to 26 illustrate the effect (Examples A1 through A26) of the claimed invention and were carried out using the procedures disclosed herein."}, "[6]": {"tested_on": "COG-LL-317 Acute Lymphoblastic Leukemia (ALL) cancer cell line", "assay": "DIMSCAN cytotoxicity dose-response with fenretinide (Examples A, FIGS. 5, 11, 17)", "conditions": "5% oxygen, at one or more doses, +96 hrs", "experimental": "as §3"}, "[7]": {"tested_on": "MOLT-4 ALL leukemia cell line", "assay": "DIMSCAN cytotoxicity dose-response with fenretinide, with or without D-threo-PPMP (Examples A, FIGS. 6, 24-26)", "conditions": "+96 hrs", "experimental": "as §4, §5"}, "[8]": {"conditions": "4-HPR 1.5 μM + L-threo-sphinganine 0.5 μM"}, "[9]": {"conditions": "4-HPR 3 μM + L-threo-sphinganine 1 μM"}, "[10]": {"conditions": "4-HPR 6 μM + L-threo-sphinganine 2 μM"}, "[11]": {"conditions": "4-HPR 9 μM + L-threo-sphinganine 3 μM"}, "[12]": {"conditions": "4-HPR 12 μM + L-threo-sphinganine 4 μM"}, "[13]": {"conditions": "2% oxygen, D-threo-PPMP fixed 10 uM, at most doses"}},
  "data": [
    {"molecule": "CCCCCCCCCCCCCC[C@H](O)[C@@H](N)CO", "note": "[C17, (2S,3S)-2-amino-1,3-heptadecanediol]", "values": [
      {"measurement": "CI (Combination Index)", "setting": "[1]; [8]", "value": 1.1},
      {"measurement": "Fa (fraction affected)", "setting": "[1]; [8]", "value": 0.112},
      {"measurement": "CI (Combination Index)", "setting": "[1]; [9]", "value": 1.0},
      {"measurement": "Fa (fraction affected)", "setting": "[1]; [9]", "value": 0.661},
      {"measurement": "CI (Combination Index)", "setting": "[1]; [10]", "value": 0.9},
      {"measurement": "Fa (fraction affected)", "setting": "[1]; [10]", "value": 0.974},
      {"measurement": "CI (Combination Index)", "setting": "[1]; [11]", "value": 1.0},
      {"measurement": "Fa (fraction affected)", "setting": "[1]; [11]", "value": 0.993},
      {"measurement": "CI", "setting": "[2]; [8]", "value": 0.3},
      {"measurement": "Fa", "setting": "[2]; [8]", "value": 0.887},
      {"measurement": "CI", "setting": "[2]; [9]", "value": 0.3},
      {"measurement": "Fa", "setting": "[2]; [9]", "value": 0.967},
      {"measurement": "CI", "setting": "[2]; [10]", "value": 0.2},
      {"measurement": "Fa", "setting": "[2]; [10]", "value": 0.991},
      {"measurement": "CI", "setting": "[2]; [11]", "value": 0.1},
      {"measurement": "Fa", "setting": "[2]; [11]", "value": 0.999},
      {"measurement": "CI", "setting": "[3]; [9]", "value": 0.4},
      {"measurement": "Fa", "setting": "[3]; [9]", "value": 0.994},
      {"measurement": "CI", "setting": "[3]; [10]", "value": 0.4},
      {"measurement": "Fa", "setting": "[3]; [10]", "value": 0.999},
      {"measurement": "CI", "setting": "[3]; [11]", "value": 0.6},
      {"measurement": "Fa", "setting": "[3]; [11]", "value": 0.9997},
      {"measurement": "CI", "setting": "[3]; [12]", "value": 0.3},
      {"measurement": "Fa", "setting": "[3]; [12]", "value": 1},
      {"measurement": "C.I. (Combination Index) with fenretinide", "setting": "[4]", "value": "< 1"},
      {"measurement": "C.I. of D-threo-PPMP with fenretinide+L-threo-sphinganine (three drug combination)", "setting": "[5]; [13]", "value": "< 1"},
      {"measurement": "C.I. (Combination Index) with fenretinide", "setting": "[5]; at one or more doses", "value": "< 1"},
      {"measurement": "C.I. (Combination Index) with fenretinide", "setting": "[6]", "value": "< 1"},
      {"measurement": "C.I. of D-threo-PPMP with fenretinide+L-threo-sphinganine (three drug combination)", "setting": "[7]; [13]", "value": "< 1"},
      {"measurement": "C.I. (Combination Index) with fenretinide", "setting": "[7]; at one or more doses", "value": "< 1"}
    ]}
  ]
}
